The target in assay [1] is Poly [ADP-ribose] polymerase 1 (Homo sapiens, UniProt P09874). The experiment in a line: Inhibition of human PARP1 expressed in Escherichia coli incubated for 15 to 40 mins by ELISA. (In general: In an ELISA, binding on a coated surface is turned into a signal by an enzyme label.)
Assay [2] has as its target T1, NAD-dependent protein deacetylase sirtuin-1 (Homo sapiens) (UniProt Q96EB6).
T1 sequence (whole entry): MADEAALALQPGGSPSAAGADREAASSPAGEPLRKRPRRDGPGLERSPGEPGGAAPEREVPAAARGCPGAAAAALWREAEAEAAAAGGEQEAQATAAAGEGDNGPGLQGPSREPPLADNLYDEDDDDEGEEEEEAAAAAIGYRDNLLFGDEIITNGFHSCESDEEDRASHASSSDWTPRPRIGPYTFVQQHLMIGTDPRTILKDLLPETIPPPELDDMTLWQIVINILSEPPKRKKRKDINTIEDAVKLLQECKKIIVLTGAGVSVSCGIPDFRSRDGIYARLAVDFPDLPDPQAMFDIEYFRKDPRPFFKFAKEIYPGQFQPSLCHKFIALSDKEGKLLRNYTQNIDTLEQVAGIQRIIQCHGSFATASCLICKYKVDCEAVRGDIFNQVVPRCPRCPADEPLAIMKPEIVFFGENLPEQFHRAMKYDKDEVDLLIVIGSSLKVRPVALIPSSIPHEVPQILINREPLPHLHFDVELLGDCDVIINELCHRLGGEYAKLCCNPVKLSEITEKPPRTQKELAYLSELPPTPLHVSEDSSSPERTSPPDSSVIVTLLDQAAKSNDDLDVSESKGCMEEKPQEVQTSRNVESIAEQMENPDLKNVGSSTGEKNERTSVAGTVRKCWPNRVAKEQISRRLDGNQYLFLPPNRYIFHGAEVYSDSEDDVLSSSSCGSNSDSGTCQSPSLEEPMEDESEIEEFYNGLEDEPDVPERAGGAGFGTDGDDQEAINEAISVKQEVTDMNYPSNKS
The experiment in a line: Modulation of SIRT1 (unknown origin) expressed in Escherichia coli BL21(DE3) cells using Ac-EE-K(biotin)-GQSTSSHSK(Ac)NleSTEG-K(5TMR)-EE-NH2 as substrate after 25 mins by mass spectrometry.

For assay [3], the system named is Mus musculus. In words: Anticonvulsant activity in ip dosed mouse assessed as protection against PTZ-induced seizure. It counts as functional.
Assay [4] can be described thus: Inhibition of human HeLa cell derived PARP preincubated for 10 mins followed by NAD and double stranded DNA-oligos addition and measured after 45 mins by scintillation counting. It counts as cell-based.
The species entered for assay [5] is Mus musculus. The experiment in a line: animal or person. The conditions noted are these: ICR, ip.
Description: Anticonvulsant activity in ip dosed ICR mouse assessed as protection against 50 mA current-induced seizure pretreated for 30 mins followed by seizure induction measured for 60 mins by maximal electroshock seizure test
Assay [6] addresses T2, Aldo-keto reductase family 1 member B1 (Homo sapiens, UniProt P15121). The experiment in a line: Inhibition of human Aldose reductase.
Assay [7] has as its system HepG2. The experiment in a line: Cytotoxicity against human HepG2 cells incubated for 48 hrs by sulforhodamine B staining based ELISA. It counts as functional, cell-based. Conditions: HepG2, 48 h. On the technique in general: In SRB staining, fixed cells bind dye roughly in proportion to their protein.
For assay [8], the system named is PC-3. In words: Cytotoxicity against human PC3 cells after 24 hrs by MTT assay. It counts as functional, cell-based. Conditions: PC-3, 24 h.
For assay [9], the system named is HepG2. In words: cells. Conditions: Homo sapiens, HepG2, 24 h.
Description: Cytotoxicity against human HepG2 cells after 24 hrs by MTT assay
Assay [10] concerns Mus musculus. The experiment in a line: Antinociceptive activity in Balb/c mouse at 20 mg/kg, ip after 120 mins by tail flick test relative to control. It counts as functional.
The subject of assay [11] is Rattus norvegicus. The experiment in a line: In vivo inhibition of Aldose reductase in streptozotocin-induced po dosed rat model of diabetes assessed as reduction in sorbitol accumulation in sciatic nerve administered at 4,7,24 hrs and measured at 27 hrs. It counts as functional.
Assay [12] concerns the target T2, Aldo-keto reductase family 1 member B1.
Description: Inhibition of human placenta Aldose reductase
Assay [13] concerns Ehrlich. In words: Antitumor activity against mouse EAC cells implanted in Swiss albino mouse assessed as reduction in tumor growth at 5 mg/kg, ip dosed daily starting 6 days after inoculation. It counts as functional, organism-based. Conditions: 144 h.

Each structure is given as a SMILES string.

Experimental findings from ChEMBL document CHEMBL4354803, “Synthesis and biological activity of structurally diverse phthalazine derivatives: A systematic review” (Bioorg Med Chem, 2019) are described below.

Chain of Poly [ADP-ribose] polymerase 1 (P09874 whole entry): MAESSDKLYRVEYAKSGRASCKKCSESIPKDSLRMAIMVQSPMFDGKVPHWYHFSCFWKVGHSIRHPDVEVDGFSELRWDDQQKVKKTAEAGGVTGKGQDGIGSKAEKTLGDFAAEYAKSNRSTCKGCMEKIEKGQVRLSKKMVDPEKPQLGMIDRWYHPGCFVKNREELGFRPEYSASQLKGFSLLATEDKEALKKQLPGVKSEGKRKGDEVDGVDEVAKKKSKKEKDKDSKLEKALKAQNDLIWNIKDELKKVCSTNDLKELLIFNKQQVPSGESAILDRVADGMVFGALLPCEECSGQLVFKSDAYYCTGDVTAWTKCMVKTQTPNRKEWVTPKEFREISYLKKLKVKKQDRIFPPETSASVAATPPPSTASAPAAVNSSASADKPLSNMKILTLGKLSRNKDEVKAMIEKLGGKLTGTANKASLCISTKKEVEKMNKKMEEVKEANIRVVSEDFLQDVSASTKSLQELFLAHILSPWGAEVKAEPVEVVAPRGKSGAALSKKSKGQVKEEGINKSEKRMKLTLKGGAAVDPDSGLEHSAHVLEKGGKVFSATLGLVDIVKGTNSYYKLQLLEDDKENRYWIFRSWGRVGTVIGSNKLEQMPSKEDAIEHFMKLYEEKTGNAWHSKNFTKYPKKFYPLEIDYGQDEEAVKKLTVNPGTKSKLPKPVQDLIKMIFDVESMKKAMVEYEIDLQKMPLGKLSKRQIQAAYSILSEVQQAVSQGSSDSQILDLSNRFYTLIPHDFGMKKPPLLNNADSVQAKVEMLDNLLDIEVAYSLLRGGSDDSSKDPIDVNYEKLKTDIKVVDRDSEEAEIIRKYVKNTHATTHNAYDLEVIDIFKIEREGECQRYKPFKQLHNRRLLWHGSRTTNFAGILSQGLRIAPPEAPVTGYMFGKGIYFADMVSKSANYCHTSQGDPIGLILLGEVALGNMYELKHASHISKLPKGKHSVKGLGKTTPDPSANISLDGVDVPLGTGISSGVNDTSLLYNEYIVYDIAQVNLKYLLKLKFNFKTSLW

As usually defined, the IC50 is the concentration at which inhibition is half-maximal. Regarding `O=C(c1cc(Cc2n[nH]c(=O)c3ccccc23)ccc1F)N1CC2C(=O)N(Cc3ccccc3)C(=O)C2C1` (stereo not drawn), the IC50 in assay [1] amounted to 0.5 nM.

In turn, `O=C(Nc1cccc2cnn(-c3cccc(C(F)(F)F)c3)c(=O)c12)c1cscn1` had an EC1.5 in assay [2] of less than 5 µM.

Usually ED50 stands for the dose that gives a 50% effect, or the effect in half of the subjects. As to `CN1CC(=O)N(c2cccc(Cc3n[nH]c(=O)c4ccccc34)c2)C1=O`, in assay [3], the ED50 is 0.00166 µmol/kg. In addition, the IC50 in assay [4] is less than 10 nM.

Consider `O=C(O)CSc1nnc(Cn2[nH]c(=O)c3ccccc3c2=O)o1`, for which the ED50 in assay [5] amounted to 184 µmol/kg.

As to `O=C(Nc1cccc2cnn(-c3cccc(C(F)(F)F)c3)c(=O)c12)c1cccc(CN2CCOCC2)n1`, in assay [2], the EC1.5 was less than 5 µM.

As for `O=C(O)Cc1nn(Cc2cc(F)cc(Br)c2)c(=O)c2ccccc12`, inhibition in [6] was half-maximal at 20 nM (IC50).

As for `CC(=O)CNC(=O)Cn1nc(Cc2ccccc2)c2ccccc2c1=O`, the IC50 in assay [7] amounted to 10 nM.

Turning to `O=C(Nc1cccc2cnn(-c3cccc(OC(F)(F)F)c3)c(=O)c12)c1cccc(OCC(O)CO)n1` (stereo not drawn), in assay [2], the EC1.5 is less than 5 µM.

In [6], `Cc1c(CC(=O)O)nn(Cc2nc3cc(F)cc(F)c3s2)c(=O)c1C` displayed an IC50 of 3.2 to 5 nM.

For the compound `O=C(Nc1cccc2cnn(-c3cccc(C(F)(F)F)c3)c(=O)c12)c1cnccn1`, in [2], the EC1.5 is less than 5 µM.

`O=C(Cn1nc(Cc2ccccc2)c2ccccc2c1=O)NNS(=O)(=O)c1ccccc1`: the IC50 in [8] was 19800 nM; in assay [9], 17400 nM.

Take `O=C(c1cc(Cc2n[nH]c(=O)c3ccccc23)ccc1F)N1CCNCC1`: the IC50 in assay [4] was less than 20 nM.

As for `O=C(Nc1cccc2cnn(-c3cccc(C(F)(F)F)c3)c(=O)c12)c1cccc(OCC(O)CO)n1` (stereo not drawn), the EC1.5 in [2] was less than 5 µM.

`O=C(O)Cc1nn(Cc2nc3cc(C(F)(F)F)ccc3s2)c(=O)c2ncccc12` came in with an IC50 in assay [6] of 2.1 to 52 nM.

In turn, `Cc1c(CC(=O)O)nn(Cc2nc3cc(C(F)(F)F)ccc3s2)c(=O)c1C` gave an IC50 in assay [6] of 10 to 16 nM.

With `CC1C(=O)N(c2cccc(Cc3n[nH]c(=O)c4ccccc34)c2)C(=O)N1CCN1CCCCC1` (stereo not drawn), the midpoint of inhibition in assay [4], the IC50, lay at 2.8 nM.

In the case of `CN(C)CCn1nc(-c2ccccc2)c2ccccc2c1=O`, the MPE in assay [10] was determined as 39.61%.

Consider `O=C(c1cc(Cc2n[nH]c(=O)c3ccccc23)ccc1F)N1CCN(c2ccccn2)CC1`, for which the concentration for half-maximal inhibition (IC50) in [4] was 3 nM.

`O=C(Nc1ccc(-c2cccc(Cc3n[nH]c(=O)c4ccccc34)c2)cc1)C1CC1`: in assay [4], the IC50 worked out at 57 nM.

`O=C(Nc1cccc2cnn(-c3cccc(OC(F)(F)F)c3)c(=O)c12)c1cccc(CN2CCOCC2)n1`: the EC1.5 in [2] is less than 5 µM.

Turning to `O=C1CCC(=O)N1c1cccc(Cc2n[nH]c(=O)c3ccccc23)c1`, the ED50 in assay [3] worked out at 0.0016 µmol/kg. The compound also had a concentration for half-maximal inhibition (IC50) in assay [4] of less than 3 nM.

Turning to `O=C(c1cc(Cc2n[nH]c(=O)c3ccccc23)cc2c1OCC2)N1CCn2c(nnc2C(F)(F)F)C1`, the IC50 in assay [1] is 1.7 nM.

With `O=C(O)Cc1nn(Cc2nc3cc(C(F)(F)F)ccc3s2)c(=O)c2cc3ccccc3cc12`, in [6], the IC50 was determined as 46 nM.

Turning to `O=C(O)Cc1nn(Cc2nc3cc(F)cc(F)c3o2)c(=O)c2ccccc12`, the ED50 in assay [11] came to 5.6 mg/kg. In addition, the concentration for half-maximal inhibition (IC50) in assay [12] lay in the range of 3.2 to 52 nM.

For `COC1CCN(C(=O)c2cc(Cc3n[nH]c(=O)c4ccccc34)ccc2F)CC1` [AZD2461], 5 nM corresponded to half-maximal inhibition in [4] (IC50).

Take `O=c1[nH]cc(F)c(=O)[nH]1` [FLUOROURACIL]: the IC50 in assay [8] is 63800 nM.

Regarding `O=C(Cn1nc(Cc2ccccc2)c2ccccc2c1=O)NNC(=S)Nc1ccccc1`, the results for the IC50 in assay [13] and in [7] were 20 nM and 10 nM, respectively.

Regarding `CCOC(=O)CSc1nnc(Cn2[nH]c(=O)c3ccccc3c2=O)o1`, the ED50 in assay [5] was found to be 193 µmol/kg.

In assay [4], `CC1NC(=O)N(c2cccc(Cc3n[nH]c(=O)c4ccccc34)c2)C1=O` (stereo not drawn) displayed an IC50 of 5 nM.

Take `O=C(O)Cc1nn(Cc2nc3cc(Br)ccc3s2)c(=O)c2ccccc12`: the ED50 in [11] stood at 3.6 mg/kg.

Regarding `O=C(c1cc(Cc2n[nH]c(=O)c3ccccc23)ccc1F)N1CCn2cnnc2C1`, in [1], the IC50 came to 5000 nM.

Compound `CCCC(CCC)C(=O)O` [VALPROIC ACID] showed an ED50 in assay [5] of 1710 µmol/kg.

In turn, `CCOC1CCN(C(=O)c2cc(Cc3n[nH]c(=O)c4ccccc34)ccc2F)CC1` returned an IC50 in [4] of 3 nM.
